The text below walks through data of patent publication US20240270821A1, “GIP/GLP1/GCG TRI-RECEPTOR AGONISTS AND USES THEREOF” (priority 2023, published 2024).

Type in all cases: cell-based
In test [1] the target is T1, hGIPR (Homo sapiens, UniProt P48546).
T1 sequence (P48546 22-466): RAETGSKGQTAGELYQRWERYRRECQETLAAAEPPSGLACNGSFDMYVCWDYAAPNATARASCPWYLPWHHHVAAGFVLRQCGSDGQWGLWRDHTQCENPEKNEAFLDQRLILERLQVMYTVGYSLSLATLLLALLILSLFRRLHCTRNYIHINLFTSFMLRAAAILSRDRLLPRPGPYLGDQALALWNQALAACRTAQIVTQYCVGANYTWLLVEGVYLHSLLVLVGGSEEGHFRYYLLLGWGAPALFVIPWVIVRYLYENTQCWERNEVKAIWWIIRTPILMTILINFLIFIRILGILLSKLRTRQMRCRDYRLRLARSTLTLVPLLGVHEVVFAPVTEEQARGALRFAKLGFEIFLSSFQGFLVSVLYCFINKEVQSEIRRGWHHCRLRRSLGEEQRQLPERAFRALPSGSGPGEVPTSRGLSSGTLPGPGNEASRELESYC
Nature of the test: Functional cAMP activity in the presence of 1% HSA.

Test [2] has as its target T2, hGLP-1R (Homo sapiens, UniProt P43220). Nature of the test: Functional cAMP activity in the presence of 1% HSA.
The target of a further test is human GcgR (Homo sapiens, UniProt P47871). Nature of the test: Functional cAMP activity in the presence of 1% HSA.
Test [3] addresses T1, hGIPR. Nature of the test: Functional cAMP activation in the presence of 0.1% casein (no HSA).
Test [4] has as its target T2, hGLP-1R. Described as above.
In the next test the target is hGcgR (Homo sapiens, UniProt P47871). The test is described as above.
[5] abbreviates: read-out: cAMP Rel EC50, hGLP-1R.
The mark [6] stands for this setting: in the presence of 0.1% casein (no HSA), geometric mean, read-out: Relative cAMP EC50, hGIPR.
Setting [7] is: in the presence of 0.1% casein (no HSA), geometric mean, read-out: Relative cAMP EC50, hGLP-1R.
Where [8] appears, read: in the presence of 0.1% casein (no HSA), geometric mean, read-out: Relative cAMP EC50, hGcgR.
Setting [9] is: read-out: Relative cAMP EC50, hGIPR.
The mark [10] stands for this setting: read-out: Relative cAMP EC50, hGLP-1R.
[11] abbreviates: read-out: Relative cAMP EC50, hGcgR.

Where two headings read alike, the source gives them in different places. Starred links: 1 amine or outer side, 2 acyl side, 3 side chain; linkers in the order of their positions; H or OH if unused. Non-standard residues stand in square brackets, D forms with d. Groups on a side chain read outwards from the residue. *: point of attachment. C20 diacid = O=C(O)CCCCCCCCCCCCCCCCCCC(=O)*; C18 diacid = O=C(O)CCCCCCCCCCCCCCCCC(=O)*; αMePhe(2-F) = C[C@](N)(Cc1ccccc1F)C(=O)O; γGlu = O=C(O)[C@H](CCC(=O)[*:2])N[*:1]; αMe4Pal = C[C@](N)(Cc1ccncc1)C(=O)O; αMeY = C[C@](N)(Cc1ccc(O)cc1)C(=O)O; 4Pal = N[C@@H](Cc1ccncc1)C(=O)O; αMeL = CC(C)C[C@](C)(N)C(=O)O; αMeS = C[C@](N)(CO)C(=O)O; Orn = NCCC[C@H](N)C(=O)O; Dap = NC[C@H](N)C(=O)O; AEEA = NCCOCCOCC(=O)O; Aib = CC(C)(N)C(=O)O
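Wherever Relative cAMP EC50, hGIPR is given: intracellular cAMP rise after 30 min at 37 °C read by HTRF against a standard curve, scaled between buffer alone (0%) and top control ligand concentration (100%), four-parameter fit.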
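Wherever Relative cAMP EC50, hGLP-1R is given: intracellular cAMP rise after 30 min at 37 °C read by HTRF, normalized between buffer only (0%) and maximal control ligand (100%), four-parameter variable-slope fit.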
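Wherever Relative cAMP EC50, hGcgR is given: intracellular cAMP rise after 30 min at 37 °C, read by HTRF against a cAMP standard curve, scaled from buffer only (0%) to maximal control ligand response (100%).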

T2 sequence (P43220 24-463): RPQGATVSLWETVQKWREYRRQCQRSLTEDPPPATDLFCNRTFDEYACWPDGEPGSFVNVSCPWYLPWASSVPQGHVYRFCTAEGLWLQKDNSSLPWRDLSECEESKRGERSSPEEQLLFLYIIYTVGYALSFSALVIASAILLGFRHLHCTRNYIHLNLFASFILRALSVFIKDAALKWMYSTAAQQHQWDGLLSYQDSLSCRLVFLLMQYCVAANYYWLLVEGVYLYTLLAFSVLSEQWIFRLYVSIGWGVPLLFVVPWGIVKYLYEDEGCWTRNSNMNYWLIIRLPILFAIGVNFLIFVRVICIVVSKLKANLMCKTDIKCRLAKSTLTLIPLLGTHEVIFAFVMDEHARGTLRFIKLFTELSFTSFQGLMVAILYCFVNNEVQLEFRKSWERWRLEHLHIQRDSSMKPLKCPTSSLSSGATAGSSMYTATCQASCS
hGcgR, sequence (P47871 26-477): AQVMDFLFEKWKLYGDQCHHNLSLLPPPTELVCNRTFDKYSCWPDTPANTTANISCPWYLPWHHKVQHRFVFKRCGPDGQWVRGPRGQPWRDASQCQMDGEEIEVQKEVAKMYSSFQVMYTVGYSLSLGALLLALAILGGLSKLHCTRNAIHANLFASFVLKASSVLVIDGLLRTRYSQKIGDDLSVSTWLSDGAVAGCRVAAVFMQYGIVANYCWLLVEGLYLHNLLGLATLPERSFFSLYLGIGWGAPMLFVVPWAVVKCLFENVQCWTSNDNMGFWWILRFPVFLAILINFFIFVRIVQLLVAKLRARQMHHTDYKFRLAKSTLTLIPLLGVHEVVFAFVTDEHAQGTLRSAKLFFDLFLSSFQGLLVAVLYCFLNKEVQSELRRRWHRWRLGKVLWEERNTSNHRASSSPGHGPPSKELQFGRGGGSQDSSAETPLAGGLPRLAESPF
human GcgR, sequence (P47871 26-477): as above

Regarding “H-Y[Aib]QGTFTSD[4Pal]S[Orn][αMeL]LDKK([AEEA-γGlu-γGlu-C18 diacid])AQ[αMe4Pal]AFIE[αMe4Pal]LIE[Aib]GPSSGEPPPSGSE-NH2 [Example 988]”, the EC50 – broadly, the midpoint of the concentration-response curve – was 11.8 nM on hGIPR [1] (read-out: cAMP Rel EC50, hGIPR); 743 nM at hGLP-1R [2] (setting [5]); 320 nM on human GcgR (read-out: cAMP Rel EC50, hGcgR); 0.198 nM on hGIPR [3] (setting [6]); 9.5 nM on hGLP-1R [4] (setting [7]); 2.52 nM on hGcgR (setting [8]).

In the case of “H-Y[Aib]QGT[αMePhe(2-F)]TSD[4Pal][αMeS]I[αMeL]LD[Orn]K([AEEA-AEEA-γGlu-C18 diacid])AQ[Aib][Orn]FIEYLIEGGPSSGAPEPSEG-NH2 [Example 492]”, the EC50 was 0.84 nM on hGIPR [1] (read-out: cAMP Rel EC50, hGIPR); 9.85 nM at hGLP-1R [2] (setting [5]); 128 nM on human GcgR (read-out: cAMP Rel EC50, hGcgR); 0.0119 nM at hGIPR [3] (setting [9]); 0.146 nM at hGLP-1R [4] (setting [10]); 1.35 nM at hGcgR (setting [11]).

As to “H-Y[Aib]QGT[αMePhe(2-F)]TSD[4Pal]SILLDKK([γGlu-γGlu-C18 diacid])AQ[Aib]AFIE[αMeY]LEEGGPSSGAPPPSGTGE-NH2 [Example 664]”, the EC50 amounted to 1.18 nM at hGIPR [1] (read-out: cAMP Rel EC50, hGIPR); 27.7 nM at hGLP-1R [2] (setting [5]); 179 nM on human GcgR (read-out: cAMP Rel EC50, hGcgR); 0.0159 nM on hGIPR [3] (setting [9]); 0.356 nM on hGLP-1R [4] (setting [10]); 2.12 nM on hGcgR (setting [11]).

With “H-Y[Aib]QGTFTSDYSI[αMeL]LDKQAAK([AEEA-AEEA-γGlu-C20 diacid])QFIEWLIEGGPSSGEPPPGAE-NH2 [Example 319]”, the EC50 is 60.1 nM on hGIPR [1]; 119 nM on hGLP-1R [2]; 1650 nM on human GcgR; 0.485 nM on hGIPR [3]; 0.947 nM at hGLP-1R [4]; 4.81 nM at hGcgR.

As to “H-Y[Aib]QGT[αMePhe(2-F)]TSD[4Pal]SILLDKK([γGlu-γGlu-C18 diacid])AQ[Aib]AFIE[αMeY]LEEGGPSSGAPPPSGGGE-NH2 [Example 668]”, the EC50 at hGIPR [1] (read-out: cAMP Rel EC50, hGIPR) was 1.69 nM; at hGLP-1R [2] (setting [5]) it was 27.1 nM; on human GcgR (read-out: cAMP Rel EC50, hGcgR), 203 nM; on hGIPR [3] (setting [9]), 0.0198 nM; at hGLP-1R [4] (setting [10]), 0.325 nM; at hGcgR (setting [11]), 2.03 nM.

As to “H-Y[Aib]QGTFTSDFS[Dap][αMeL]LDKK([γGlu-γGlu-C18 diacid])AQ[Aib]AFIEYLLE[Aib]GPSSGAPPPSGS-NH2 [Example 203]”, the EC50 at hGIPR [1] (read-out: cAMP Rel EC50, hGIPR) came out at 19 nM; on hGLP-1R [2] (setting [5]), 532 nM; on human GcgR (read-out: cAMP Rel EC50, hGcgR), 1160 nM; on hGIPR [3] (setting [6]), 0.125 nM; on hGLP-1R [4] (setting [7]), 4.72 nM; on hGcgR (setting [8]), 6.92 nM.

Consider “H-Y[Aib]QGTFTSD[4Pal]SR[αMeL]LDKK([γGlu-γGlu-C18 diacid])AQ[αMe4Pal]AFIEYLIAGGESSGAPPPSGSEE-NH2 [Example 965]”, for which the EC50 at hGIPR [1] (read-out: cAMP Rel EC50, hGIPR) amounted to 23.2 nM; at hGLP-1R [2] (setting [5]) it was 194 nM; on human GcgR (read-out: cAMP Rel EC50, hGcgR), 430 nM; on hGIPR [3] (setting [6]), 0.13 nM; on hGLP-1R [4] (setting [7]) it was 1.39 nM; at hGcgR (setting [8]) it was 3.35 nM.
